22 compounds from ChEMBL document CHEMBL4364325, “Synthesis, pharmacological and structural studies of 5-substituted-3-(1-arylmethyl-1,2,3,6-tetrahydropyridin-4-yl)-1H-indoles as multi-target ligands of aminergic GPCRs” (Eur J Med Chem, 2019) can be followed below.

Activity calls are given as the source filed them. The rule behind the calls is not given here.

In general, Ki refers to a dissociation constant, usually derived from enzyme kinetics or from competition with a known ligand. The term inhibition denotes how much of the control response was suppressed. A low value points to a weak effect. Broadly, the Kb is the affinity of an antagonist, worked out from how it opposes an agonist. The pKb is the Kb on a negative log10 scale, so that one unit is a factor of ten. What is called IC50 is the concentration at which inhibition is half-maximal. The low end stands for higher potency, the high end for lower potency. In general, Emax refers to the size of the effect at its maximum, as opposed to the concentration needed.

For data set [1], the target named is T1, 5-hydroxytryptamine receptor 1A (Homo sapiens, UniProt P08908).
T1 sequence (P08908 whole entry): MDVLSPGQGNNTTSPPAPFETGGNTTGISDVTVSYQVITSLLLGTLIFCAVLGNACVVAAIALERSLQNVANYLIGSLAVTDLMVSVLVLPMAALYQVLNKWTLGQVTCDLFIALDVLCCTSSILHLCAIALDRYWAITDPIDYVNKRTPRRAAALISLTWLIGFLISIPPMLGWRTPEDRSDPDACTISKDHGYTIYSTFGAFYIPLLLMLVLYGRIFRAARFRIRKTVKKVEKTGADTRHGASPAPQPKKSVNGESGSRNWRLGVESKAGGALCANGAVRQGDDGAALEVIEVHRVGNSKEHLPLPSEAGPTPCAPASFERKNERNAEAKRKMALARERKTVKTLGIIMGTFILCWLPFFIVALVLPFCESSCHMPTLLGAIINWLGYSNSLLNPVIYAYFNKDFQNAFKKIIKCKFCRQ
The data set is described as follows: Displacement of [3H]8-OH-DPAT from human 5HT1A receptor expressed in HEK293 cell membranes measured after 120 mins. In general terms: In a radioligand displacement assay an active substance lowers the binding of a labelled ligand.

Data set [2] has as its target T2, D(2) dopamine receptor (Homo sapiens, UniProt P14416). The data set is described as follows: Displacement of [3H]Spiperone from human D2S receptor expressed in CHOK1 cell membranes measured after 120 mins.
The target of data set [3] is T3, 5-hydroxytryptamine receptor 2A (Homo sapiens, UniProt P28223). The data set is described as follows: Displacement of [3H]ketanserin from human 5HT2A receptor expressed in HEK293 cell membranes at 10 uM measured after 30 mins relative to control.
T3 sequence (P28223 whole entry): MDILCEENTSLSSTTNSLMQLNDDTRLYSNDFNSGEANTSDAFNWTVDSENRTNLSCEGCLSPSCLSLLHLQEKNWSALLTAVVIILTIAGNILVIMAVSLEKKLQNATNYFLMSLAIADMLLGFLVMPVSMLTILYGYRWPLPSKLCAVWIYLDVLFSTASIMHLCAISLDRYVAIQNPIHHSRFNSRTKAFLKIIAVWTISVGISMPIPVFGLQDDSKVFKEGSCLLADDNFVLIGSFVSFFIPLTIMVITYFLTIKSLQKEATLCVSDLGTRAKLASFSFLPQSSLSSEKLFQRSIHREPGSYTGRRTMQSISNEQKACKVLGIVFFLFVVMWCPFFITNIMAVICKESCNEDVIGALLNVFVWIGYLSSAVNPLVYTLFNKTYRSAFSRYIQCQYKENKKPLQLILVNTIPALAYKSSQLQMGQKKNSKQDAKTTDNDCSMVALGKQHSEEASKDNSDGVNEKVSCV
Data set [4] deals with T3, 5-hydroxytryptamine receptor 2A. Briefly: Displacement of [3H]ketanserin from human 5HT2A receptor expressed in HEK293 cell membranes measured after 30 mins. The class given is cell-based.
Data set [5] deals with T2, D(2) dopamine receptor. The data set is described as follows: Displacement of [3H]Spiperone from human D2S receptor expressed in CHOK1 cell membranes at 10 uM measured after 120 mins relative to control.
The target in a further data set is D(3) dopamine receptor (Homo sapiens, UniProt P35462). The data set is described as follows: Displacement of [3H]Spiperone from human D3 receptor expressed in commercial cell membranes.
D(3) dopamine receptor, sequence (P35462 whole entry): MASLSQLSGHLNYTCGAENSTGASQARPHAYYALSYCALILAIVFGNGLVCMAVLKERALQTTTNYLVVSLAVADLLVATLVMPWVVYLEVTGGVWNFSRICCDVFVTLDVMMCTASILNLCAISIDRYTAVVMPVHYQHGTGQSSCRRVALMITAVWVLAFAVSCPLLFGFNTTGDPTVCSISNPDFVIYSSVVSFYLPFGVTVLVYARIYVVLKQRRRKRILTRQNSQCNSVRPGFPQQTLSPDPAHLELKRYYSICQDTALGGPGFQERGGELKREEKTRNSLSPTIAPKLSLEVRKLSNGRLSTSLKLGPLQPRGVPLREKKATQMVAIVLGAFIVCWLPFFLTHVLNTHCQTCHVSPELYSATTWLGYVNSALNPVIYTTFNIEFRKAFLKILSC
Data set [6] deals with T1, 5-hydroxytryptamine receptor 1A. The data set is described as follows: Displacement of [3H]8-OH-DPAT from human 5HT1A receptor expressed in HEK293 cell membranes.
Data set [7] concerns the target T2, D(2) dopamine receptor. The data set is described as follows: Displacement of [3H]Spiperone from human D2S receptor expressed in CHO cell membranes.
Another data set has as its target D(1A) dopamine receptor (Homo sapiens, UniProt P21728). Briefly: Displacement of [3H]SCH23390 from human D1 receptor expressed in commercial cell membranes.
Data set [8] addresses T3, 5-hydroxytryptamine receptor 2A. Briefly: Displacement of [3H]ketanserin from human 5HT2A receptor expressed in CHO cell membranes.
Another data set is filed under the species Homo sapiens. The data set is described as follows: Selectivity ratio of Kb for human 5HT2A receptor expressed in CHOK1 cells to Kb for human D2S receptor expressed in CHOK1 cells. The class given is cell-based.
Data set [9] addresses T2, D(2) dopamine receptor. Briefly: Competitive antagonist activity at human D2S receptor expressed in CHOK1 cells assessed as quinpirole mediated inhibition of forskolin induced cAMP accumulation by measuring parallel rightward shifts of quinpirole concentration-response curves incubated for 10 mins by HTRF assay based Schild plot analysis. Format: functional, cell-based. For orientation: Changes in cAMP serve as a functional read-out for many G protein-coupled receptors.

Data set [10] deals with T3, 5-hydroxytryptamine receptor 2A. Format: functional, cell-based.
Description: Antagonist activity at human 5HT2A receptor expressed in CHOK1 cells assessed as inhibition of 5-HT induced inositol phosphate production incubated for 24 hrs followed by 5-HT addition by HTRF assay
Data set [11] concerns the target T2, D(2) dopamine receptor. The data set is described as follows: Agonist activity at human D2 receptor expressed in CHOK1 cells assessed as inhibition of forskolin induced cAMP production at 0.1 nM to 100 uM incubated for 10 mins followed by forskolin addition and measured after 5 mins by HTRF assay. Format: functional, cell-based.
In data set [12] the target is T2, D(2) dopamine receptor. Briefly: Antagonist activity at human D2S receptor expressed in CHOK1 cells assessed as suppression of dopamine-induced inhibition of forskolin-stimulated cAMP accumulation preincubated for 5 mins followed by dopamine and forskolin addition and measured after 10 mins by HTRF assay. The class given is functional, cell-based.
In data set [13] the target is T4, 5-hydroxytryptamine receptor 1A (Homo sapiens) (UniProt P08908).
T4 sequence (whole entry): T1 sequence (P08908 whole entry)
The data set is described as follows: Agonist activity at human 5HT1A receptor expressed in HEK293 cell membranes assessed as maximal inhibition of forskolin induced cAMP production incubated for 24 hrs followed by forskolin addition by HTRF assay relative to control. Format: functional, cell-based.

Data set [14] addresses T3, 5-hydroxytryptamine receptor 2A. The data set is described as follows: Antagonist activity at human 5HT2A receptor expressed in CHOK1 cells assessed as inhibition of inositol phosphate production incubated for 24 hrs followed by 5-HT addition by Cheng-Prusoff equation analysis. The class given is functional, cell-based.
In data set [15] the test system is Mus musculus. Briefly: Cognition enhancing effect in Swiss mouse assessed as increase in latency index at 50 mg/kg, ip as acute administration measured after 24 hrs by passive avoidance test. Format: functional, organism-based.
In data set [16] the test system is Mus musculus. The data set is described as follows: Antipsychotic activity in Swiss mouse assessed as decrease in amphetamine-induced hyperlocomotion at 50 mg/kg, ip pretreated for 60 mins followed by amphetamine administration and measured for 30 mins. The class given is functional, organism-based.
The test system of data set [17] is Mus musculus. Briefly: Antidepressant activity in Swiss mouse assessed as decrease in immobility time at 50 mg/kg, ip as acute administration measured during last 4 mins for 6 mins by forced swim test. Format: functional, organism-based.
In data set [18] the test system is Mus musculus. Briefly: Antidepressant activity in Swiss mouse assessed as increase in latency time at 50 mg/kg, ip as acute administration measured during last 4 mins for 6 mins by forced swim test. The class given is functional, organism-based.
Data set [19] can be described thus: Toxicity in Swiss mouse assessed as induction of motor coordination impairments at 50 mg/kg, ip measured after 60 mins by chimney test. Format: organism-based. As to conditions: in vivo, 1 h.

T2 sequence (P14416 whole entry): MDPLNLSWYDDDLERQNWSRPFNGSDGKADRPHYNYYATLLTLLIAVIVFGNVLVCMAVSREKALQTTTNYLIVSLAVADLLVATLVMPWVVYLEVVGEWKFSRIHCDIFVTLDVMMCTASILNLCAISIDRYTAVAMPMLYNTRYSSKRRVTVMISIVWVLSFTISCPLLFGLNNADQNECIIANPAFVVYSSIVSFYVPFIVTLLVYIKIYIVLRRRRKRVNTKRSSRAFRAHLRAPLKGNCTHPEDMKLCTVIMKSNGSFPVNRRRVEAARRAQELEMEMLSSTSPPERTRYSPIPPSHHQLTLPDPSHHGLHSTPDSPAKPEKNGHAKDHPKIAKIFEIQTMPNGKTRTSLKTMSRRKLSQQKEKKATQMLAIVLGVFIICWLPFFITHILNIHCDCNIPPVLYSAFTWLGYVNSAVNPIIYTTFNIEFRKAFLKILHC
D(1A) dopamine receptor, sequence (P21728 whole entry): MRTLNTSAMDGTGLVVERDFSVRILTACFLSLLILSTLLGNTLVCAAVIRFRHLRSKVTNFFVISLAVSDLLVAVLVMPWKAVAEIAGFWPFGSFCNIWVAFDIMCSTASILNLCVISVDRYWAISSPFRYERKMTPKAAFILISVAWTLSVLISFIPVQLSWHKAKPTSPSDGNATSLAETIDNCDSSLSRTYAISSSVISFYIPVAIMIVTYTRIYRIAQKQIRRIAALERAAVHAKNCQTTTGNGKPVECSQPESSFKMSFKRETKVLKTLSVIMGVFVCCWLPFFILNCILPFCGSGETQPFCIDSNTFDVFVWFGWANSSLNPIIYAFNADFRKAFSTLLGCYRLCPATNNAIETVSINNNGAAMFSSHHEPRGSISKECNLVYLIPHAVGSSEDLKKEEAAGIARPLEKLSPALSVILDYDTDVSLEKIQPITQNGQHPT

With `COc1ccc(CN2CC=C(c3c[nH]c4ccc(OC)cc34)CC2)cc1`, the Ki in data set [1] worked out at 134 nM; at D(2) dopamine receptor [2] it was 148 nM. Also, the inhibition in data set [3] turned out to be 48%.
`CCOc1ccc2[nH]cc(C3=CCN(Cc4ccccc4)CC3)c2c1`: the inhibition constant (Ki) in data set [4] was found to be 2100 nM; in data set [1] it was 220 nM.
In turn, `CCOc1ccc2[nH]cc(C3=CCN(Cc4ccco4)CC3)c2c1` showed a Ki in data set [1] of 486 nM. For the same compound, the inhibition in [3] was 47%; at D(2) dopamine receptor [5] it was 62%.
As for `CCOc1ccc2[nH]cc(C3=CCN(Cc4cccc(OC)c4)CC3)c2c1`, the Ki in data set [1] was found to be 160 nM; at D(2) dopamine receptor [2], 108 nM. The compound also had an inhibition in [3] of 3%.
In [1], `CC(C)Oc1ccc2[nH]cc(C3=CCN(Cc4ccco4)CC3)c2c1` returned an inhibitory constant (Ki) of 431 nM. The results for the inhibition (in data set [3]; at D(2) dopamine receptor [5]) were 5% and 51%, respectively.
In the case of `CC(C)Oc1ccc2[nH]cc(C3=CCN(Cc4ccccc4)CC3)c2c1`, the figures for the Ki (in data set [1]; at D(2) dopamine receptor [2]) were 203 nM and 321 nM, respectively. For the same compound, the inhibition in data set [3] was 32%.
Take `COc1ccc2[nH]cc(C3=CCN(Cc4ccco4)CC3)c2c1`: the inhibition constant Ki in data set [1] came to 195 nM; at D(2) dopamine receptor [2], 142 nM. Further, in data set [3], the inhibition came out at 15%.
For `COc1ccc2[nH]cc(C3=CCN(Cc4cc(=O)[nH]c5ccccc45)CC3)c2c1`, the Ki on D(3) dopamine receptor turned out to be 614 nM; in data set [6] it was 125 nM; at D(2) dopamine receptor [7], 58 nM; on D(1A) dopamine receptor, 148 nM; in data set [8], 358 nM.
With `C1=C(c2c[nH]c3ccccc23)CCN(Cc2ccco2)C1`, the results for the Ki (in data set [4]; in data set [1]; at D(2) dopamine receptor [2]) were 173 nM, 752 nM and 257 nM, respectively.
For the compound `COc1ccc(CN2CC=C(c3c[nH]c4ccccc34)CC2)cc1`, the inhibition constant Ki in [1] is 243 nM; at D(2) dopamine receptor [2] it was 87.3 nM. Also, the inhibition in data set [3] stood at 52%.
Regarding `COc1cccc(CN2CC=C(c3c[nH]c4ccc(OC)cc34)CC2)c1`, the values for the Ki (in data set [1]; on D(2) dopamine receptor [2]) were 135 nM and 112 nM, respectively. The inhibition in data set [3] was 24%.
For the compound `COc1ccc2[nH]cc(C3=CCN(Cc4ccccc4)CC3)c2c1`, the Ki was determined as 139 nM in data set [1] and 62.7 nM on D(2) dopamine receptor [2]. In [3], this compound displayed an inhibition of 41%.
With `CC(C)Oc1ccc2[nH]cc(C3=CCN(Cc4cccs4)CC3)c2c1`, the Ki in [1] turned out to be 214 nM; on D(2) dopamine receptor [2] it was 465 nM. The inhibition in data set [3] was 14%.
As to `COc1cccc(CN2CC=C(c3c[nH]c4ccccc34)CC2)c1`, in the data set filed under Homo sapiens, the Selectivity ratio was found to be 200. For the same compound, the Ki in data set [4] came out at 194 nM; in [1] it was 243 nM; at D(2) dopamine receptor [2], 26.9 nM. Moreover, the Activity result on D(2) dopamine receptor [9] and on D(2) dopamine receptor [12] was “Dose-dependent effect” throughout. Moreover, the Kb on D(2) dopamine receptor [9] was determined as 4.95 nM; in data set [14] it was 803 nM. On D(2) dopamine receptor [9], the pKb worked out at 8.31. The same compound had an IC50 in data set [10] of 7980 nM. Also, at D(2) dopamine receptor [11], the result was inactive. Further, the maximum response (Emax) in [13] was determined as 76%.
For the compound `CCOc1ccc2[nH]cc(C3=CCN(Cc4cccs4)CC3)c2c1`, the Ki turned out to be 139 nM in [1] and 166 nM on D(2) dopamine receptor [2]. The inhibition in data set [3] came to 0%.
As to `COc1ccc2[nH]cc(C3=CCN(Cc4cccs4)CC3)c2c1`, the Ki turned out to be 1890 nM in data set [4], 157 nM in data set [1] and 141 nM at D(2) dopamine receptor [2].
`C1=C(c2c[nH]c3ccccc23)CCN(Cc2cccs2)C1`: the Selectivity ratio in the data set filed under Homo sapiens was determined as 50. Also, the results for the Ki (in data set [4]; in [1]; on D(2) dopamine receptor [2]) were 171 nM, 305 nM and 71.9 nM, respectively. Also, the Activity entry was “Dose-dependent effect” at D(2) dopamine receptor [9], “Dose-dependent effect” at D(2) dopamine receptor [12] and “Non-Toxic” in data set [19]. Further, the figures for the Kb (on D(2) dopamine receptor [9]; in data set [14]) were 5.06 nM and 238 nM, respectively. The pKb on D(2) dopamine receptor [9] is 8.3. The compound further had an IC50 in data set [10] of 2410 nM. The result in the data set with Mus musculus [15], in the data set on Mus musculus [16], with Mus musculus [17] and with Mus musculus [18] was Active. The outcome on D(2) dopamine receptor [11] was inactive. In addition, the Emax in [13] came to 67%.
Take `COc1cccc(CN2CC=C(c3c[nH]c4ccc(OC(C)C)cc34)CC2)c1`: the Ki in data set [1] was 290 nM; at D(2) dopamine receptor [2], 299 nM. The same compound showed an inhibition in data set [3] of 43%.
For `COc1ccc(CN2CC=C(c3c[nH]c4ccc(OC(C)C)cc34)CC2)cc1`, in that order: 378 nM, 165 nM and 36%.
Take `C1=C(c2c[nH]c3ccccc23)CCN(Cc2ccccc2)C1`: the Selectivity ratio in the data set filed under Homo sapiens was 80. Moreover, the figures for the Ki (in data set [4]; in [1]; on D(2) dopamine receptor [2]) were 125 nM, 354 nM and 25.8 nM, respectively. Also, the Activity entry on D(2) dopamine receptor [9] and at D(2) dopamine receptor [12] was “Dose-dependent effect” throughout. The values for the Kb (at D(2) dopamine receptor [9]; in data set [14]) were 3.51 nM and 279 nM, respectively. Also, on D(2) dopamine receptor [9], the pKb turned out to be 8.45. The compound also showed an IC50 in [10] of 2620 nM. The outcome at D(2) dopamine receptor [11] was inactive. The Emax in data set [13] worked out at 89%.
On to `CCOc1ccc2[nH]cc(C3=CCN(Cc4ccc(OC)cc4)CC3)c2c1`, for which the figures for the inhibition constant Ki (in data set [1]; on D(2) dopamine receptor [2]) were 194 nM and 132 nM, respectively. In [3], this compound gave an inhibition of 38%.
Turning to `NCCc1c[nH]c2ccc(C(N)=O)cc12`, in data set [13], the maximal effect (Emax) worked out at 95%.
